# Patent publication US20130237601A1, “COMPOSITION FOR THE TREATMENT AND/OR PREVENTION OF FIRE BLIGHT” (LANXESS DISTRIBUTION GMBH, priority 2006, published 2013)
# Structures can show the parent of a compound that is named as a salt.
# Test system: Erwinia amylovora
# Assay: Test for inhibitory activity against Erwinia amylovora (inhibitory zone on CYE medium plates)
# Type: cell-based
# Settings: after 24 hours, read-out: Inhibitory zone diameter
# Method: 10 μl of an Erwinia amylovora suspension were plated onto CYE medium at a density of 10^8 cfu/ml. Thereafter, a hole 5 mm in diameter was punched into the center of the plates, and 20 μl of the test solution were introduced. After 24 hours, the inhibitory zone was measured. The reference substance was streptomycin sulfate, and the negative control was tap water.
# The product used was an aqueous solution of the preparation according to the invention in the form of granules of formic acid and/or a salt of formic acid, in particular calcium formate, whose content in formic acid and/or a salt of formic acid, in particular calcium formate, was approximately 80% by weight. This preparation was diluted with tap water to give the concentrations stated (based on the granules).
structure (smiles),measurement,setting,value
"[H]/N=C(/N)N[C@H]1[C@H](O)[C@@H](O)[C@H](O[C@@H]2O[C@@H](C)[C@](O)(C=O)[C@H]2O[C@@H]2O[C@@H](CO)[C@H](O)[C@@H](O)[C@@H]2NC)[C@@H](N/C(N)=N\[H])[C@@H]1O [Streptomycin sulfate, streptomycin sulfate]",zone of inhibition at 0.001 % strength,concentration 0.001% by weight,16 mm
same,zone of inhibition at 0.01 % strength,concentration 0.01% by weight,20 mm
same,zone of inhibition at 0.1 % strength,concentration 0.1% by weight,24 mm
